From patent US20140010939A1, “Sweetness Enhancers, Sweetener Compositions, Methods of Making the Same and Consumables Containing the Same” (Nutrinova Nutrition Specialties & Food Ingredients GmbH, priority 2011, published 2014) come the findings set out here.

This assay relates to control cell line without sweet receptor (HEKα15#17). In words: Control cell line without sweet receptor in the same calcium cell based assay. Here is the method: For measurement of human T1R2/T1R3 taste receptor dependent activity a control cell line without sweet receptor based on HEK 293 and a cell line expressing the sweet receptor hT1R2/hT1R3 based on HEK 293, respectively, are seeded into assay plates and labelled with the calcium sensitive fluorescence dye Fluo4-AM in a culture medium. The potential modulators, e.g. the test compound, are added to the control cell line and to the cell line expressing the sweet receptor hT1R2/hT1R3, respectively.
A stable cell line based on HEK293 was termed HEKα15#17 served as control for functional Ga-protein and a stable cell line HEKGα15#17R2R3b#8 C6 served as cell line expressing the sweet receptor hT1R2/hT1R3 based on HEKGα15#17.
The cells were cultured in DMEM/HG and 10% FCS Gold, 4 mM L-Glutamin, 1,3 mg/ml Geneticin (HEKGα15#17) or the same medium additionally containing 6 μg/ml Blasticidin (HEKGα15#17R2R3b#8 C6). The medium for the assay was DMEM/HG (high glucose, 4.5 g/l glucose, Life Technologies) and 10% FCS Gold, 4 mM L-Glutamin (HEKGα15#17) or DMEM/LG (low glucose, 1 g/l glucose; Life Technologies) and 10% FCS Gold (HEKGα15#17R2R3b#8C6), respectively.
In order to evaluate the sweet receptor modulating activity of the compound of formula (Ia), compound of formula (Ia) was added to the cultures in a concentration of 25 μM in a volume of 50 μl. Controls were KH-buffer (Krebs HEPES-buffer: 118 mM NaCl, 4.7 mM KCl, 1.2 mM MgSO4, 1.2 mM KH2PO4, 4.2 mM NaHCO3, 1.3 mM CaCl2, 10 mM Hepes, pH 7.4) either without or with sweetness enhancer.
Further controls for function of G-protein and receptor were isoproterenol (1 μM, Sigma Aldrich), ionomycin (1 μM, Calbiochem) and ATP (1 μM, Applichem).
For measurement of human T1R2/T1R3 taste receptor dependent activity, on day 1 of the test procedure the HEKα15#17 cells (control cell line without sweet receptor) and the HEKGα15#17R2R3b#8 C6 cells (cell line expressing the sweet receptor hT1R2/hT1R3), respectively, were transferred to low-glucose medium.
On day 2 the cells were seeded into assay plates at a density of 25,000 cells/well. Assay plates for fluorescence measurement (black clear bottom 96-cavity plates, Greiner Bio-One) were coated with poly-D-lysine. For direct comparison both cell lines (control cell line without sweet receptor and cell line expressing the sweet receptor hT1R2/hT1R3) were seeded into different cavities of the same assay plate. The plate was placed into the incubator for 48 hours at 37° C., 5% CO2, 100% relative humidity.
On day 4 the calcium assay was performed. For this assay, the cells were marked with Fluo4-AM in medium and KH-buffer. To each cavity 100 μl KH-buffer/250 μM sulfinpyrazone/4 μM Fluo4-AM were added gently to 100 μl medium (final concentration of Fluo4-AM=2 μM, stock solution of Fluo4-AM 1 mM in DMSO, excitation at 485 nm, emission at 520 nm, Fisher Scientific, 58239 Schwerte, Germany).
The plate was placed into the incubator for 1 hour. In the mean time the test substances (“ligands”) were prepared in a separate plate (5 times concentrated, 150 μl/cavity, and then automatically 50 μl/cavity were transferred into the screening cell plate by pipetting robot (FLEX-station, Molecular Devices, Sunnyvale, Calif.).
The culture medium was carefully removed and 200 μl KH-buffer/250 μM sulfinpyrazone per cavity was added slowly. Cells were left in the FLEX-station for 20 minutes for adaptation, followed by measurement at 37° C.

The mark [1] stands for this setting: control compounds 1 μM, FIG. 1 second to fourth bars.

In the case of `O=S(=O)([O-])NC1CCCCC1.[Na+]` [sodium cyclamate], for the setting “sodium cyclamate 30 mM, control sweetener, FIG. 1 first bar”, the “Fluo4-AM fluorescence increase (activation of control cell line)” value (from here on “Fluo4-AM fluorescence increase”) was “does not activate the control cell line”.

Take `Nc1ncnc2c1ncn2[C@@H]1O[C@H](COP(=O)(O)OP(=O)(O)OP(=O)(O)O)[C@@H](O)[C@H]1O` [ATP]: the “Fluo4-AM fluorescence increase” value under setting [1] is “activate both the control and the cell line expressing the sweet receptor hT1R2/hT1R3”.

With `O=C(CO)[C@@H](O)[C@H](O)[C@H](O)CO` [fructose], the “Fluo4-AM fluorescence increase” value (KH buffer/fructose (20 mM), FIG. 1 fifth bar) was “does neither activate the control cell line”.

In the case of `C[C@H](CCC(=O)O)C[C@H](C)C[C@H](C)C(=O)/C=C(\O)[C@H](C)C[C@H](C)C/C=C/[C@@H](C)[C@@H](O)[C@@H](C)[C@@H](O)C[C@@H]1CC[C@@](C)([C@H]2CC[C@@](C)([C@@H](C)O)O2)O1` [ionomycin], under setting [1], the “Fluo4-AM fluorescence increase” value is “activate both the control and the cell line expressing the sweet receptor hT1R2/hT1R3”.

Take `CC(C)NCC(O)c1ccc(O)c(O)c1` (centres unmarked) [isoproterenol]: the “Fluo4-AM fluorescence increase” value under setting [1] is “activate both the control and the cell line expressing the sweet receptor hT1R2/hT1R3”.
